Measurements published in patent US10011607B2, “Ethynyl derivatives” (Hoffmann-La Roche Inc., priority 2015, dated 2018).

Biological target: human mGlu4 receptor (Homo sapiens (Human), UniProt Q14833)
Assay: Ca2+ mobilization in vitro assay on recombinant human mGlu4 expressed in HEK293 cells (PAM)
Type: cell-based
Settings: for Emax: HEK293, maximal response in % of maximal stimulatory effect of saturating L-AP4, read-out: Eff. (%); for EC50: HEK293 cells, human mGlu4, in presence of EC20 of L-AP4, read-out: EC50 (nM) mGlu4PAM
Method in brief: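 HEK293 cells stably expressing human mGlu4 at low level, Fluo-4AM loaded; compound (11 half-log dilutions) pre-incubated 10–30 min at 37 °C, then L-AP4 added at EC20 (determined daily). Peak fluorescence minus basal, normalized to saturating L-AP4; EC50, Hill slope and % Emax from four-parameter fit.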

Sequence of human mGlu4 receptor (Q14833 33-912): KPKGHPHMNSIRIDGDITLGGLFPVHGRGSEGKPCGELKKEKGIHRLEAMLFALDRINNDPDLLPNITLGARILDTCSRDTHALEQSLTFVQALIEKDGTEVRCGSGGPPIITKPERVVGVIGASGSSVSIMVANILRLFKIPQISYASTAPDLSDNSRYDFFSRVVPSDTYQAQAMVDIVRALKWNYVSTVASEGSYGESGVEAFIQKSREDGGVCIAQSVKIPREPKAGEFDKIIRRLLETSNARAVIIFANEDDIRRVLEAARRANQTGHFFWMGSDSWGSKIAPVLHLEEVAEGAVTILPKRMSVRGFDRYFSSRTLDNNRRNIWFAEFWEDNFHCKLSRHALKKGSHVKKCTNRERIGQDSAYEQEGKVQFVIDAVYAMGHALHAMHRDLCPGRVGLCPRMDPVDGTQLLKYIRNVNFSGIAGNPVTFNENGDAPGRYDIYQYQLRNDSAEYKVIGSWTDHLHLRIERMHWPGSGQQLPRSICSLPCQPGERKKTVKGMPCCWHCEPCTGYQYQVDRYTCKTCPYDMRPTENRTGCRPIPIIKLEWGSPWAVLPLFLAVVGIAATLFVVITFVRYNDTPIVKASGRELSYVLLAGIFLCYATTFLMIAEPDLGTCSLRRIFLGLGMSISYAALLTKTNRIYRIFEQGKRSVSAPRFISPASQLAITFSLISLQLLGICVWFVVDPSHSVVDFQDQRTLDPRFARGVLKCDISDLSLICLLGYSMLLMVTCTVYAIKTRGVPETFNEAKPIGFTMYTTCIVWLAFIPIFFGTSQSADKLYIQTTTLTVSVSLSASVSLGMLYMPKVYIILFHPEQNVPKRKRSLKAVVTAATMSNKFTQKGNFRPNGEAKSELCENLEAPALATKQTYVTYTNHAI

| SMILES | Emax | EC50 |
| --- | --- | --- |
| Cc1ccc(N2CCN3C(=O)N(c4c(F)cc(C#Cc5ccccc5)cc4F)C(=O)CC3(C)C2=O)nn1 (racemic) [Example 48, (9aRS)-7-[2,6-difluoro-4-(2-phenylethynyl)phenyl]-9a-methyl-2-(6-methylpyridazin-3-yl)-4,9-dihydro-3H-pyrazino[1,2-c]pyrimidine-1,6,8-trione] | 120% | 198 nM |
| Cc1cc(N2CCN3C(=O)N(c4c(F)cc(C#Cc5ccccc5)cc4F)C(=O)C[C@@]3(C)C2=O)ncn1 [Example 35, (9aS)-7-[2,6-difluoro-4-(2-phenylethynyl)phenyl]-9a-methyl-2-(6-methylpyrimidin-4-yl)-4,9-dihydro-3H-pyrazino[1,2-c]pyrimidine-1,6,8-trione] | 121% | 91 nM |
| Cn1cc(CCN2CCN3C(=O)N(c4c(F)cc(C#Cc5ccccc5)cc4F)C(=O)C[C@@]3(C)C2=O)cn1 [Example 101, (9aS)-7-[2,6-difluoro-4-(2-phenylethynyl)phenyl]-9a-methyl-2-[2-(1-methylpyrazol-4-yl)ethyl]-4,9-dihydro-3H-pyrazino[1,2-c]pyrimidine-1,6,8-trione] | 129% | 125 nM |
| C[C@@]12CC(=O)N(c3c(F)cc(C#Cc4ccccc4)cc3F)C(=O)N1CCN(c1cnc(OCc3ccccc3)nc1)C2=O [Example 41, (9aS)-2-(2-benzyloxypyrimidin-5-yl)-7-[2,6-difluoro-4-(2-phenylethynyl)phenyl]-9a-methyl-4,9-dihydro-3H-pyrazino[1,2-c]pyrimidine-1,6,8-trione] | 99% | 81 nM |
| Cn1nccc1CN1CCN2C(=O)N(c3c(F)cc(C#Cc4ccccc4)cc3F)C(=O)C[C@@]2(C)C1=O [Example 97, (9aS)-7-[2,6-difluoro-4-(2-phenylethynyl)phenyl]-9a-methyl-2-[(2-methylpyrazol-3-yl)methyl]-4,9-dihydro-3H-pyrazino[1,2-c]pyrimidine-1,6,8-trione] | 128% | 76 nM |
| C[C@@]12CC(=O)N(c3c(F)cc(C#Cc4ccccc4)cc3F)C(=O)N1CCN(c1cnc(OCc3ccccc3)cn1)C2=O [Example 45, (9aS)-2-(5-benzyloxypyrazin-2-yl)-7-[2,6-difluoro-4-(2-phenylethynyl)phenyl]-9a-methyl-4,9-dihydro-3H-pyrazino[1,2-c]pyrimidine-1,6,8-trione] | 122% | 190 nM |
| O=C1C2CC(=O)N(c3c(F)cc(C#Cc4ccccc4)cc3F)C(=O)N2CCN1c1ccccn1 (racemic) [Example 3, (9aRS)-7-[2,6-difluoro-4-(2-phenylethynyl)phenyl]-2-(2-pyridyl)-3,4,9,9a-tetrahydropyrazino[1,2-c]pyrimidine-1,6,8-trione] | 116% | 235 nM |
| Cc1cncc(C)c1N1CCN2C(=O)N(c3c(F)cc(C#Cc4ccccc4)cc3F)C(=O)C[C@@]2(C)C1=O [Example 17, (9aS)-7-[2,6-difluoro-4-(2-phenylethynyl)phenyl]-2-(3,5-dimethyl-4-pyridyl)-9a-methyl-4,9-dihydro-3H-pyrazino[1,2-c]pyrimidine-1,6,8-trione] | 136% | 201 nM |
| Cn1nccc1CCN1CCN2C(=O)N(c3c(F)cc(C#Cc4ccccc4)cc3F)C(=O)C[C@@]2(C)C1=O [Example 100, (9aS)-7-[2,6-difluoro-4-(2-phenylethynyl)phenyl]-9a-methyl-2-[2-(2-methylpyrazol-3-yl)ethyl]-4,9-dihydro-3H-pyrazino[1,2-c]pyrimidine-1,6,8-trione] | 123% | 219 nM |
| CC[C@@]12CC(=O)N(c3c(F)cc(C#Cc4ccccc4)cc3F)C(=O)N1CCN(c1cccnc1)C2=O [Example 106, (9aS)-7-[2,6-difluoro-4-(2-phenylethynyl)phenyl]-9a-ethyl-2-(3-pyridyl)-4,9-dihydro-3H-pyrazino[1,2-c]pyrimidine-1,6,8-trione] | 112% | 95 nM |
| Cc1csc(N2CCN3C(=O)N(c4c(F)cc(C#Cc5ccccc5)cc4F)C(=O)CC3(C)C2=O)n1 (racemic) [Example 54, (9aRS)-7-[2,6-difluoro-4-(2-phenylethynyl)phenyl]-9a-methyl-2-(4-methylthiazol-2-yl)-4,9-dihydro-3H-pyrazino[1,2-c]pyrimidine-1,6,8-trione] | 97% | 48 nM |
| COc1cnc(N2CCN3C(=O)N(c4c(F)cc(C#Cc5ccccc5)cc4F)C(=O)C[C@@]3(C)C2=O)cn1 [Example 44, (9aS)-7-[2,6-difluoro-4-(2-phenylethynyl)phenyl]-2-(5-methoxypyrazin-2-yl)-9a-methyl-4,9-dihydro-3H-pyrazino[1,2-c]pyrimidine-1,6,8-trione] | 107% | 123 nM |
| Cc1cncc(N2CCN3C(=O)N(c4c(F)cc(C#Cc5ccccc5)cc4F)C(=O)CC3(C)C2=O)n1 (racemic) [Example 34, (9aRS)-7-[2,6-difluoro-4-(2-phenylethynyl)phenyl]-9a-methyl-2-(6-methylpyrazin-2-yl)-4,9-dihydro-3H-pyrazino[1,2-c]pyrimidine-1,6,8-trione] | 114% | 148 nM |
| Cc1cn(C)c(N2CCN3C(=O)N(c4c(F)cc(C#Cc5ccccc5)cc4F)C(=O)CC3(C)C2=O)n1 (racemic) [Example 59, (9aRS)-7-[2,6-difluoro-4-(2-phenylethynyl)phenyl]-2-(1,4-dimethylimidazol-2-yl)-9a-methyl-4,9-dihydro-3H-pyrazino[1,2-c]pyrimidine-1,6,8-trione] | 107% | 104 nM |
| CC12CC(=O)N(c3c(F)cc(C#Cc4ccccc4)cc3F)C(=O)N1CCN(c1cccnn1)C2=O (racemic) [Example 46, (9aRS)-7-[2,6-difluoro-4-(2-phenylethynyl)phenyl]-9a-methyl-2-pyridazin-3-yl-4,9-dihydro-3H-pyrazino[1,2-c]pyrimidine-1,6,8-trione] | 106% | 132 nM |
| CC[C@@]12CC(=O)N(c3c(F)cc(C#Cc4ccccc4)cc3F)C(=O)N1CCN(c1cnn(C)c1)C2=O [Example 107, (9aS)-7-[2,6-difluoro-4-(2-phenylethynyl)phenyl]-9a-ethyl-2-(1-methylpyrazol-4-yl)-4,9-dihydro-3H-pyrazino[1,2-c]pyrimidine-1,6,8-trione] | 125% | 104 nM |
| CC(C)n1cc(N2CCN3C(=O)N(c4c(F)cc(C#Cc5ccccc5)cc4F)C(=O)C[C@@]3(C)C2=O)cn1 [Example 70, (9aS)-7-[2,6-difluoro-4-(2-phenylethynyl)phenyl]-2-(1-isopropylpyrazol-4-yl)-9a-methyl-4,9-dihydro-3H-pyrazino[1,2-c]pyrimidine-1,6,8-trione] | 150% | 139 nM |
| C[C@@]12CC(=O)N(c3c(F)cc(C#Cc4ccccc4F)cc3F)C(=O)N1CCN(c1ccncn1)C2=O [Example 110, (9aS)-7-[2,6-difluoro-4-[2-(2-fluorophenyl)ethynyl]phenyl]-9a-methyl-2-pyrimidin-4-yl-4,9-dihydro-3H-pyrazino[1,2-c]pyrimidine-1,6,8-trione] | 90% | 31 nM |
| CC12CC(=O)N(c3c(F)cc(C#Cc4ccccc4)cc3F)C(=O)N1CCN(c1ccncn1)C2=O (racemic) [Example 26, (9aRS)-7-[2,6-difluoro-4-(2-phenylethynyl)phenyl]-9a-methyl-2-pyrimidin-4-yl-4,9-dihydro-3H-pyrazino[1,2-c]pyrimidine-1,6,8-trione] | 101% | 36 nM |
| Cc1ccnc(N2CCN3C(=O)N(c4c(F)cc(C#Cc5ccccc5)cc4F)C(=O)C[C@@]3(C)C2=O)c1 [Example 13, (9aS)-7-[2,6-difluoro-4-(2-phenylethynyl)phenyl]-9a-methyl-2-(4-methyl-2-pyridyl)-4,9-dihydro-3H-pyrazino[1,2-c]pyrimidine-1,6,8-trione] | 148% | 131 nM |
| C[C@@]12CC(=O)N(c3c(F)cc(C#Cc4ccccc4)cc3F)C(=O)N1CCN(c1ccncn1)C2=O [Example 27, (9aS)-7-[2,6-difluoro-4-(2-phenylethynyl)phenyl]-9a-methyl-2-pyrimidin-4-yl-4,9-dihydro-3H-pyrazino[1,2-c]pyrimidine-1,6,8-trione] | 136% | 39 nM |
| C[C@@]12CC(=O)N(c3c(F)cc(C#Cc4ccccc4)cc3F)C(=O)N1CCN(c1cnccn1)C2=O [Example 33, (9aS)-7-[2,6-difluoro-4-(2-phenylethynyl)phenyl]-9a-methyl-2-pyrazin-2-yl-4,9-dihydro-3H-pyrazino[1,2-c]pyrimidine-1,6,8-trione] | 107% | 46 nM |
| CC12CC(=O)N(c3c(F)cc(C#Cc4ccccc4)cc3Cl)C(=O)N1CCN(c1ccncc1)C2=O (racemic) [Example 75, (9aRS)-7-[2-chloro-6-fluoro-4-(2-phenylethynyl)phenyl]-9a-methyl-2-(4-pyridyl)-4,9-dihydro-3H-pyrazino[1,2-c]pyrimidine-1,6,8-trione] | 128% | 210 nM |
| Cn1cc(N2CCN3C(=O)N(c4c(F)cc(C#Cc5ccccc5)cc4Cl)C(=O)CC3(C)C2=O)cn1 (racemic) [Example 77, (9aRS)-7-[2-chloro-6-fluoro-4-(2-phenylethynyl)phenyl]-9a-methyl-2-(1-methylpyrazol-4-yl)-4,9-dihydro-3H-pyrazino[1,2-c]pyrimidine-1,6,8-trione] | 111% | 104 nM |
| CC12CC(=O)N(c3c(F)cc(C#Cc4ccccc4)cc3F)C(=O)N1CCN(c1cccnc1)C2=O (racemic) [Example 6, (9aRS)-7-[2,6-difluoro-4-(2-phenylethynyl)phenyl]-9a-methyl-2-(3-pyridyl)-4,9-dihydro-3H-pyrazino[1,2-c]pyrimidine-1,6,8-trione] | 122% | 118 nM |
